Patent US6245817A, “NPY5 receptor antagonists and methods for using same” (Bayer Corporation, priority 1999, dated 2001)
Structures can show the parent of a compound that is named as a salt.

What was measured:
[1] = molecular target: T1, Human NPY1 Receptor (Homo sapiens, UniProt P25929); assay: Human NPY1 Receptor Binding Assay; details: SK-N-MC cells, [125I]PYY; read-out: hNPY1 IC50
T1 sequence (P25929 1-384): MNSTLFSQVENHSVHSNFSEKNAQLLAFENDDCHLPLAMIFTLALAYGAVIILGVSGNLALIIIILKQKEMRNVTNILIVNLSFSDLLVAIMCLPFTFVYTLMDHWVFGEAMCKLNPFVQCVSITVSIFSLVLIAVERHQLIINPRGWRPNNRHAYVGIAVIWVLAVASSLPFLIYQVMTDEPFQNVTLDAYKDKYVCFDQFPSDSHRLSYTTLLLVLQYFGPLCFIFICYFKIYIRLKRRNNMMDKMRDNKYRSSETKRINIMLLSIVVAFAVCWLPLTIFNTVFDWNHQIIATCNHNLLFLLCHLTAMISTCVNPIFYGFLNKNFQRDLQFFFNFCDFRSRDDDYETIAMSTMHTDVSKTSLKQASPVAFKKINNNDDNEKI

[2] = molecular target: T2, Human NPY2 receptor (Homo sapiens, UniProt P49146); assay: Human NPY2 Receptor Binding Assay; details: [125I]PYY; read-out: hPPY2 IC50
T2 sequence (P49146 1-381): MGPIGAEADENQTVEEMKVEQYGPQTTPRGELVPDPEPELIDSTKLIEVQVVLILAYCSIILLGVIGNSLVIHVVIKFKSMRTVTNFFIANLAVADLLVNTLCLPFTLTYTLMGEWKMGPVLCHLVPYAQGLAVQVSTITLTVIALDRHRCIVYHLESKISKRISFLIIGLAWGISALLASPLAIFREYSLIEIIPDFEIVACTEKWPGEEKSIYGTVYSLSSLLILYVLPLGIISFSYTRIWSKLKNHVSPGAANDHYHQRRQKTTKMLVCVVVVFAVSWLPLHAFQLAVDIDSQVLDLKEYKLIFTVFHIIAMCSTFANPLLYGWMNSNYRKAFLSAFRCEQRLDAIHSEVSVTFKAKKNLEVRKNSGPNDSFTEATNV
Experimental: Binding assays were performed on GF/C Millipore 96-well plates pretreated with 0.02% polyethylenimine. The binding buffer for rat Y2 binding is Krebs-Ringer bicarbonate (pH 7.4) containing 0.01% BSA and 0.005% bacitracin. Samples consist of membrane protein, 25 pM [125I]PYY and drug dilution. Nonspecific binding is defined by 1 μpM NPY.
After a 2 hour incubation at room temperature with constant mixing, the samples are aspirated on a vacuum manifold, and rinsed with ice-cold binding buffer. The amount of radioactivity in each well is quantitated with either gamma counting or liquid scintillation.

[3] = molecular target: Human NPY4/PP1 receptor (Homo sapiens, UniProt P50391); assay: Human NPY4/PP1 Receptor Binding Assay; details: [125I]human PP; read-out: hNPY4 IC50
Chain of Human NPY4/PP1 receptor (P50391 whole entry): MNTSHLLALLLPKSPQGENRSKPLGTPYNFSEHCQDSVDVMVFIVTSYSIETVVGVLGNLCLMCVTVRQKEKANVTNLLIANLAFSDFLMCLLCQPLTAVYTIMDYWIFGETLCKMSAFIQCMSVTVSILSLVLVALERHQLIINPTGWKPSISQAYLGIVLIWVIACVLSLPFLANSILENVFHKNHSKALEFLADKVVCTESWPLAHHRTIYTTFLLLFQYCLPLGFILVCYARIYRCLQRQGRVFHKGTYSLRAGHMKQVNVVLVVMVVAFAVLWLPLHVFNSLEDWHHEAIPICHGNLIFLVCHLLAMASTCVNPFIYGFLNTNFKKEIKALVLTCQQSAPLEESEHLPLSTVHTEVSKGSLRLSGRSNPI

[4] = molecular target: T3, Human NPY5 Receptor (Homo sapiens, UniProt Q15761); assay: Human NPY5 Receptor Binding Assay; details: [125I]PYY; read-out: hNPY5 IC50
T3 sequence (Q15761 1-445): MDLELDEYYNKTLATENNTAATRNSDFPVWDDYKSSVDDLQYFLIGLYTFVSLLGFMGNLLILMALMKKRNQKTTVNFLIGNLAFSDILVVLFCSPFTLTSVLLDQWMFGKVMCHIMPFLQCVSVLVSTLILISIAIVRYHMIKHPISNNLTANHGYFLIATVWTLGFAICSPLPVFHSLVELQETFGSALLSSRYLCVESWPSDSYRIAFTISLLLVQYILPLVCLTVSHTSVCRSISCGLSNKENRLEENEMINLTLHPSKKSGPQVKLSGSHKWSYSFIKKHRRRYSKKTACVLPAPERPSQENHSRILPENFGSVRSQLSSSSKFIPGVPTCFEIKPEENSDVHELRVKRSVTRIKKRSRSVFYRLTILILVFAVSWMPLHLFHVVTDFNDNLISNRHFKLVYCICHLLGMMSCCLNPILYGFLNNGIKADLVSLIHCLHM
Experimental: Human and Rat NPY5 Receptor Binding Assays
Binding assays are performed on GF/C Millipore 96-well plates pretreated with 0.02% polyethylenimine. The binding buffer is 25 mM Tris, 120 mM NaCl, 5 mM KCl, 1.2 mM KH2 PO4, 2.5 mM CaCl2, 1.2 mM MgSO4, 0.1% BSA and 0.5 mg/ml bacitracin, pH 7.4. Samples consist of membrane protein, 75-100 pM [125I]PYY (porcine, NEN-DuPont) and drug dilution. Nonspecific binding is defined by 1 μM PYY. After a 2 hour incubation at room temperature with constant mixing, the samples are aspirated on a vacuum manifold, and rinsed with ice-cold binding buffer. The amount of radioactivity in each well is quantitated with either gamma counting or liquid scintillation. IC50 values, which correspond to 50% inhibition of specific binding, are determined with non-linear regression analysis.

[5] = molecular target: T4, Rat NPY5 Receptor (Rattus norvegicus, UniProt Q63634); assay: Rat NPY5 Receptor Binding Assay; details: [125I]PYY; read-out: rNPY5 IC50
T4 sequence (Q63634 1-445): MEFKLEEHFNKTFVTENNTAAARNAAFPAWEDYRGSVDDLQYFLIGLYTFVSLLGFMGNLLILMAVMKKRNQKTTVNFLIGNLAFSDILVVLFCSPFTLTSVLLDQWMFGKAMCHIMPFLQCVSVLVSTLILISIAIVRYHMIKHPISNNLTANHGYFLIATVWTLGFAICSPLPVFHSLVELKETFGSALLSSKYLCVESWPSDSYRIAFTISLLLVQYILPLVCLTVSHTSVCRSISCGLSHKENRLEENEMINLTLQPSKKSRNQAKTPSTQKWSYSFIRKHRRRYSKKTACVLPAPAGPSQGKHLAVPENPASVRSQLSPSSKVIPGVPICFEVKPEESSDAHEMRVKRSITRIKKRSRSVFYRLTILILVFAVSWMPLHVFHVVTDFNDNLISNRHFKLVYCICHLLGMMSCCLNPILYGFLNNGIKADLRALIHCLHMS

[6] = molecular target: T4, Rat NPY5 Receptor; assay: Rat NYP5 Cyclase Assay (In Vitro Functional Assay); assay type: cell-based; details: 20 min, percentage of forskolin-stimulated adenylate cyclase, read-out: rNPY5 % FSAC (10 μM)
Experimental: D. Rat NYP5 Cyclase Assay (In Vitro Functional Assay)
Cells stably expressing the rat NPY5 receptor are resuspended in serum-free DMEM containing 10 mM HEPES (pH 7.4) and 1 mM isobutylmethylxanthine (IBMX). 1 μM forskolin and drug dilution are then added to the cells. After a 20 minute incubation of the samples at 37° C., the assay is stopped by placing the samples in boiling water for 3 minutes. The cAMP produced in each sample is quantitated with a radioimmunoassay kit (NEN Dupont). Data are expressed as a percentage of forskolin-stimulated adenylate cyclase.

| IC50 [1] [µM] | IC50 [2] [µM] | IC50 [3] [µM] | IC50 [4] [µM] | IC50 [5] [µM] | activity at 10 µM [6] [%] | SMILES |
| --- | --- | --- | --- | --- | --- | --- |
| > 5 | > 5 | > 5 | 0.16 | 0.029 | 99 | Cn1nnnc1SCC(=O)Nc1ccc(C2CCCCC2)cc1 [Compound 8, N-(4-Cyclohexyl-phenyl)-2-(1-methyl-1H-tetrazol-5-ylsulfanyl)-acetamide] |
| – | > 5 | – | 0.22 | – | 105 | Nc1nnc(SCC(=O)Nc2ccc(C3CCCCC3)cc2)s1 [Compound 51, 2-(-Amino-[1,3,4]thiadiazol-2-ylsulfanyl)-N-4-cydohexyl-phenyl-cetamide] |
| > 5 | > 5 | > 5 | 3.1 | 3.9 | – | Cn1ccnc1SCC(=O)Nc1ccc(C(C)(C)C)cc1 [Compound 143, N-(4-tert-Butyl-phenyl)-2-(1-methyl-1H-imidazol-2-ylsulfanyl)-acetamide, reference compound] |
| > 5 | > 5 | > 5 | 1.2 | 1.4 | – | Cn1nnnc1SCC(=O)Nc1ccc(OC(F)(F)F)cc1 [Compound 144, 2-(1-Methyl-1H-tetrazol-5-ylsulfanyl)-N-(4-trifluoromethoxy-phenyl)-acetamide, reference compound] |
| > 5 | > 5 | > 5 | > 10 | > 10 | – | Cn1ccnc1SCC(=O)Nc1ccc(I)cc1 [Compound 145, N-(4-Iodo-phenyl)-2-(1-methyl-1H-imidazol-2-ylsulfanyl)-acetamide, reference compound] |
| > 5 | > 5 | > 5 | > 10 | > 10 | – | CN1CCN=C1SCC(=O)Nc1ccc(F)cc1 [Compound 146, N-(4-Fluoro-phenyl)-2-(1-methyl-4,5-dihydro-1H-imidazol-2-ylsulfanyl)-acetamide, reference compound] |
| > 5 | > 5 | > 5 | > 10 | > 10 | – | O=C(CSc1n[nH]c(=O)n1-c1cccc(F)c1)Nc1ccc(Cl)cc1 [Compound 147, reference compound] |
| > 5 | > 5 | > 5 | 4 | 2.4 | – | CCC(C)c1ccc(NC(=O)CSc2nccn2C)cc1 (centres unmarked) [Compound 148, N-(4-sec-Butyl-phenyl)-2-(1-methyl-1H-imidazo1-2-ylsulfanyl)-acetamide, reference compound] |
| > 5 | > 5 | > 5 | 0.24 | 0.28 | – | Cc1ccc(SCC(=O)Nc2cccc(C#N)c2)cc1 [Compound 151, N-(3-Cyano-phenyl)-2-p-tolylsulfanyl-acetamide, reference compound] |
| > 5 | > 5 | > 5 | > 10 | > 10 | – | Cn1c(CN2C(=O)CSc3ccc(C(F)(F)F)cc32)nnc1SCC(=O)Nc1ccccc1 [Compound 152, 2-[4-Methyl-5-(3-oxo-6-trifluornmethyl-2,3-dihydro-benzo[1,4]thiazin-4-ylmethyl)-4H-[1,2,4]triazol-3-ylsulfanyl]-N-phenyl-acetamide, reference compound] |
| > 5 | > 5 | > 5 | > 10 | 10 | – | Cn1c(-c2ccc(Cl)cc2)cnc1SCC(=O)Nc1ccc(Cl)cc1 [Compound 154, N-(4-Chloro-phenyl)-2-[5-(4-chloro-phenyl)-1-methyl-1H-imidazol-2-ylsulfanyl]-acetamide, reference compound] |
| > 5 | > 5 | > 5 | > 10 | > 10 | – | CC(C)c1ccc(NC(=O)CSc2nccn2C)cc1 [Compound 155, N-(4-Isopropyl-phenyl)-2-(1-methyl-1H-imidazol-2-ylsulfanyl)-acetamide, reference compound] |
| > 5 | > 5 | > 5 | > 10 | > 10 | – | CCOc1ccc(NC(=O)CSc2nccn2C)cc1 [Compound 156, N-(4-Ethoxy-phenyl)-2-(1-methyl-1H-imidazol-2-ylsulfanyl)-acetamide, reference compound] |
| > 5 | > 5 | > 5 | 0.87 | 0.76 | – | O=C(CSc1ccccn1)Nc1ccc(C2CCCCC2)cc1 [Compound 182, N-(4-Cyclohexyl-phenyl)-2-(pyridin-2-ylsulfanyl)-acetamide, reference compound] |
| > 5 | > 5 | > 5 | > 10 | > 10 | – | O=C(CSC1=NCCN1)Nc1ccc(Cl)cc1 [Compound 187, N-(4-Chloro-phenyl)-2-(4,5-dihydro-1H-imidazol-2-ylsulfanyl)-acetamide, reference compound] |

| SMILES | IC50 [1] [µM] | IC50 [2] [µM] | IC50 [3] [µM] | IC50 [4] [µM] | IC50 [5] [µM] | activity at 10 µM [6] [%] |
| --- | --- | --- | --- | --- | --- | --- |
| Cn1ccnc1SCC(=O)Nc1ccc(C2CCCCC2)cc1 [Compound 3, N-(4-Cyclohexyl-phenyl)-2-(1-methyl-1H-imidazol-2-ylsulfanyl)-acetamide Hydrochloride] | > 5 | > 5 | > 5 | 0.16 | 0.12 | 103 |
